# Source: patent US11917959B2, “Multi-ear system to enhance monocot plant yield” (Monsanto Technology LLC, priority 2015, dated 2024)
# Key:
# [1] = system: DH0 maize plants, Germplasm A; assay: Doubling efficiency after co-dominant ear induction (Example 2); type: in vivo; settings: for DE04 doubling efficiency / DE20 doubling efficiency / DE30 doubling efficiency / DE50 doubling efficiency: Germplasm A DH0, 60 mL 2.5% PBZ
# Text: An F1 hybrid-derived haploid induction population derived from female inbred maize plant Germplasm A was germinated in soil and tended in standard greenhouse maize growing conditions for approximately seven days. Seedlings were then subjected to a bulk colchicine-based chromosome doubling treatment as described above. Following treatment, seedlings were transplanted into pots and tended in a greenhouse at standard greenhouse maize growing conditions to recover.
# Twenty-nine days after the colchicine doubling treatment, 77 of the DH0 seedlings were subjected to a co-dominant ear induction treatment comprising the addition of 60 mL of 2.5% PBZ (v/v) in water, which was poured into the soil surrounding the roots of each plant. The seedlings were then tended in standard greenhouse maize growing conditions until they flowered, at which time each plant that produced pollen was self-pollinated. After approximately 3-4 weeks, ears were harvested and the kernels (DH1 seeds) that formed on the treated DH0 plants were counted to determine doubling efficiencies.
# Doubling efficiencies (DE) were calculated under four different constraints, depending on the minimum number of kernels an ear had to produce in order to even be included in the calculation. DE04 represents the portion of all the doubled DH0 plants that produced a total of at least four seeds when all ears were considered. DE20 represents the portion of all the doubled DH0 plants that produced a total of at least 20 kernels when all ears were considered. Similarly, DE30 represents the portion of doubled DH0 plants that produced a total of at least 30 kernels when all ears were considered, and DE50 represents the portion of doubled DH0 plants that produced a total of at least 50 kernels when all ears were considered.
# (§1) Furthermore, the above doubling efficiencies were calculated once by considering only the kernels that formed on the primary ear of each plant (Ear1), once by considering only the kernels that formed on the primary and secondary ear of each plant (Ear2), once by considering only the kernels that formed on the primary, secondary, and tertiary ear of each plant (Ear3), and finally by considering all the kernels that formed on all the ears of each plant (Earall).
# [2] = system: haploid maize populations; assay: Doubling efficiency of four germplasms after co-dominant ear induction (Example 3); type: in vivo; parameters: DE50: unit not given beside the values; settings: 60 mL 2.5% PBZ at V7 or V8
# Experimental: Two F1 hybrid-derived (one male and one female) haploid populations (referred to herein as H1 and H2) and two inbred-derived haploid lines (male Germplasm B and female Germplasm A) were tested in this experiment. Seven days after planting, several dozen seedlings from each group were removed from the soil and subjected to a bulk colchicine-based chromosome doubling treatment as described above. After the chromosome doubling treatment, seedlings were transplanted to soil and tended in a greenhouse at standard maize growing conditions. When the seedlings had reached approximately the V7 or V8 stage (approximately 29 days after doubling under the growing conditions used), the seedlings were subjected to co-dominant ear induction treatment comprising 60 mL of 2.5% PBZ added to the soil surrounding the base of each stem.
# The seedlings were then tended in standard greenhouse maize growing conditions until they flowered, at which time each plant that produced pollen was self-pollinated and then left undisturbed to await fertilization and kernel production. After approximately 2-3 weeks, ears were harvested and the kernels that formed on them (DH1) were counted to determine doubling efficiencies.
# as §1, with “Doubling efficiencies (DE) were calculated under the different constraints described in the previous example to generate values for DE04, DE20, DE30, and DE50 for each of the four genotypes. Furthermore,” for “Furthermore,”
# [3] = Ear 2 (primary and secondary ear)
# [4] = Ear 3 (primary, secondary, tertiary ear)
compound,measurement,setting,value
"CC(C)(C)[C@@H](O)[C@@H](Cc1ccc(Cl)cc1)n1cncn1 (relative stereo) [PBZ, (±)-(R*, R*)-beta-((4-chlorophenyl)methyl)-alpha-(1,1,-dimethylethyl)-1H-1,2,4,-triazole-1-ethanol]",DE04 doubling efficiency,[1]; Ear 1 only,71%
same,DE20 doubling efficiency,[1]; Ear 1 only,37%
same,DE30 doubling efficiency,[1]; Ear 1 only,26%
same,DE50 doubling efficiency,[1]; Ear 1 only,23%
same,reduction in DE between DE04 and DE20,[1]; Ear2,22%
same,DE04 doubling efficiency,[1]; [3],76%
same,DE20 doubling efficiency,[1]; [3],59%
same,DE30 doubling efficiency,[1]; [3],47%
same,DE50 doubling efficiency,[1]; [3],36%
same,DE04 doubling efficiency,[1]; [4],76%
same,DE20 doubling efficiency,[1]; [4],65%
same,DE30 doubling efficiency,[1]; [4],58%
same,DE50 doubling efficiency,[1]; [4],50%
same,DE04 doubling efficiency,[1]; Ear All,76%
same,DE20 doubling efficiency,[1]; Ear All,68%
same,DE30 doubling efficiency,[1]; Ear All,58%
same,DE50 doubling efficiency,[1]; Ear All,52%
same,DE04,"[2]; Ear1, Control A",72.9
same,DE20,"[2]; Ear1, Control A",60.7
same,DE30,"[2]; Ear1, Control A",48.6
same,DE50,"[2]; Ear1, Control A",48.6
same,DE04,"[2]; Ear1, Control B",64.8
same,DE20,"[2]; Ear1, Control B",44.5
same,DE30,"[2]; Ear1, Control B",40.5
same,DE50,"[2]; Ear1, Control B",32.4
same,DE04,"[2]; Ear1, Germplasm A",64.6
same,DE20,"[2]; Ear1, Germplasm A",37.4
same,DE30,"[2]; Ear1, Germplasm A",30.6
same,DE50,"[2]; Ear1, Germplasm A",23.8
same,DE04,"[2]; Ear1, Germplasm B",56.7
same,DE20,"[2]; Ear1, Germplasm B",40.5
same,DE30,"[2]; Ear1, Germplasm B",40.5
same,DE50,"[2]; Ear1, Germplasm B",40.5
same,DE04,"[2]; Earall, Control A",81
same,DE20,"[2]; Earall, Control A",76.9
same,DE30,"[2]; Earall, Control A",76.9
same,DE50,"[2]; Earall, Control A",64.8
same,DE04,"[2]; Earall, Control B",68.8
same,DE20,"[2]; Earall, Control B",56.7
same,DE30,"[2]; Earall, Control B",56.7
same,DE50,"[2]; Earall, Control B",44.5
same,DE04,"[2]; Earall, Germplasm A",81.6
same,DE20,"[2]; Earall, Germplasm A",71.4
same,DE30,"[2]; Earall, Germplasm A",71.4
same,DE50,"[2]; Earall, Germplasm A",64.6
same,DE04,"[2]; Earall, Germplasm B",68.8
same,DE20,"[2]; Earall, Germplasm B",48.6
same,DE30,"[2]; Earall, Germplasm B",44.5
same,DE50,"[2]; Earall, Germplasm B",44.5
